One test has as its system Male ICR mice. The test can be described thus: Suppression of spontaneous activity (SA) in mice. It counts as in vivo, mouse. Particulars: Mus musculus, iv, mice, i.v.
For another test, the target named is T1, CB2 receptor (Homo sapiens, UniProt P34972).
T1 construct: expressed in transfected cells; host or cells: CHO cells, G418-selected transfected line
The test can be described thus: CB2 binding procedure: displacement of [3H]CP-55,940 from membranes of transfected CHO cells. Particulars: for CB1/CB2 (ratio of Ki): CB1 Ki divided by CB2 Ki; for Ki: means ± SEM, [3H]CP-55,940, transfected CHO cell membranes, read-out: Ki (nM) CB2; for fold decrease in CB2 affinity: relative to the comparator analog. On the technique in general: Displacement assays read how much labelled ligand stays bound in the presence of the test substance.

Where [1] appears, read: 95% confidence limits in parentheses, read-out: ED50 SA (suppression of spontaneous activity).

Read-outs that look alike come from different tables or passages of the source.

T1 sequence (P34972 whole entry): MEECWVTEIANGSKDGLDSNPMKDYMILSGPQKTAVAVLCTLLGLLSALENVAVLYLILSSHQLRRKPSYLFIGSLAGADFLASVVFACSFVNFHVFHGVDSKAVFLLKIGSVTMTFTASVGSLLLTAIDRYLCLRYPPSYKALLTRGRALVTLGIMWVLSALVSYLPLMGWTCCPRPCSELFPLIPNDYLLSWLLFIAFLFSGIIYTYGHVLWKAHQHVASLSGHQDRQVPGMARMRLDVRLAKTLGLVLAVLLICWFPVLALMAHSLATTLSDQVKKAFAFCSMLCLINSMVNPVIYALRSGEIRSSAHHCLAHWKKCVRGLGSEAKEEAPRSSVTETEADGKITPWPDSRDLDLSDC

A word on the ED50: it is the midpoint of the dose-response relation. For orientation: Ki means a measure of affinity in units of concentration, obtained from inhibition or displacement. Consider `CCCCCCC(C)(C)c1cc(O)c(C2CCCC(C)C2)c(O)c1` (mixture of isomers) [O-1657, 2-(3-Methylcyclohexyl)-5-(1′,1′-dimethylheptyl)-resorcinol], for which the ED50 in the test with Male ICR mice (Table 6, read-out: S.A ED50) is 0.13 mg/kg. The ED50 with Male ICR mice (setting [1]) worked out at 0.3 µmol/kg. Further, on CB2 receptor, the “CB1/CB2 (ratio of Ki)” value worked out at 17 and the Ki came out at 0.8 ± 0.04 nM.
On to `CCCCCCC(C)(C)c1cc(O)c([C@H]2CCCC(C)C2)c(O)c1` (single isomer, unassigned) [O-1826], for which the ED50 with Male ICR mice (Table 6, read-out: S.A ED50) was 0.915 mg/kg. Also, the ED50 in the test on Male ICR mice (setting [1]) turned out to be 2.7 µmol/kg. For the same compound, on CB2 receptor, the “CB1/CB2 (ratio of Ki)” value was determined as 50 and the Ki is 0.8 ± 0.05 nM.
The like results for `CCCCCCC(C)(C)c1ccc(-c2cc(C)ccc2C(C)C)c(O)c1` [O-1376, 3-1′,1′-Dimethylheptyl-6-(2-isopropyl-5-methylphenyl)phenol] were, in that order, 2.94 mg/kg, 8.5 µmol/kg, 11 and 3 ± 0.4 nM.
For `CCCCCCC(C)(C)c1cc(O)c(C2CCCCC2)c(O)c1` [O-1422, Cyclohexyl-5-(1′,1′-dimethylheptyl)-resorcinol] the same measures were 0.379 mg/kg, 0.1 µmol/kg, 7 and 1.5 ± 0.1 nM.
`CCCCCCC(C)(C)c1cc(O)c(C2=CCCCC2)c(O)c1` [O-1423]: in the test with Male ICR mice (Table 6, read-out: S.A ED50), the ED50 stood at 3.92 mg/kg. Besides, the ED50 in the test on Male ICR mice (setting [1]) came out at 12 µmol/kg. Further, on CB2 receptor, the “CB1/CB2 (ratio of Ki)” value was found to be 3 and the Ki amounted to 28 ± 5 nM.
Regarding `CCCCCCC(C)(C)c1cc(O)c(C2CCSCC2)c(O)c1` [O-1425], the 50% effective dose (ED50) with Male ICR mice (Table 6, read-out: S.A ED50) amounted to 5.82 mg/kg. The ED50 in the test with Male ICR mice (setting [1]) turned out to be 17 µmol/kg. Moreover, on CB2 receptor, the “CB1/CB2 (ratio of Ki)” value stood at 13, the inhibitory constant (Ki) came out at 12 ± 2 nM and the “fold decrease in CB2 affinity” value is listed as 8 fold.
In the case of `CCCCCCC(C)(C)c1cc(O)c(C2CCCCC2C)c(O)c1` (stereo not shown) [O-1658, 2-(2-Methylcyclohexyl)-5-(1′,1′-dimethylheptyl)-resorcinol], the ED50 in the test with Male ICR mice (Table 6, read-out: S.A ED50) amounted to 0.06 mg/kg; in the test with Male ICR mice (setting [1]), 0.2 µmol/kg. Also, on CB2 receptor, the “CB1/CB2 (ratio of Ki)” value was 16. For the same compound, the Ki on CB2 receptor amounted to 1 ± 0.3 nM.
Consider `CCCCCCC(C)(C)c1cc(O)c(C2CCC(C)CC2)c(O)c1` (stereo not shown) [O-1659, 2-(4-Methylcyclohexyl)-5-(1′,1′-dimethylheptyl)-resorcinol], for which, in the test on Male ICR mice (Table 6, read-out: S.A ED50), the median effective dose (ED50) is 1.65 mg/kg. In addition, in the test with Male ICR mice (setting [1]), the ED50 worked out at 4.8 µmol/kg. Moreover, at CB2 receptor, the “CB1/CB2 (ratio of Ki)” value came to 9, the Ki was determined as 5 ± 0.9 nM and the “fold decrease in CB2 affinity” value is “about 5 fold”.
For `CCCCCCC(C)(C)c1cc(O)c(C2C3CC4CC(C3)CC2C4)c(O)c1` (stereo not shown) [O-1660, 2-(2-Adamantyl)-5-(1′,1′-di-methylheptyl)-resorcinol], the ED50 is 1.27 mg/kg in the test with Male ICR mice (Table 6, read-out: S.A ED50) and 3.5 µmol/kg in the test with Male ICR mice (setting [1]). Moreover, the “CB1/CB2 (ratio of Ki)” value on CB2 receptor came out at 2. The Ki on CB2 receptor was 3 ± 0.8 nM.
For `CCCCCCC(C)(C)c1cc(O)c(C2CCSC2)c(O)c1` (stereo not shown) [O-1661, 2-(Tetrahydrothiophen-3-yl)-5-(1′,1′-dimethylheptyl)-re-sorcinol] the same measures were 2.65 mg/kg, 24 µmol/kg, 5 and 28 ± 12 nM.
The like results for `CCCC(C)(C)c1cc(O)c(C2CCCC(C)C2)c(O)c1` (stereo not shown) [O-1890, 2-(3-Methylcyclohexyl)-5-(1′,1′-dimethylbutyl)-resorcinol] were, in that order, 20 mg/kg, 69 µmol/kg, 7 and 13 ± 1 nM.
